# From the kinase profiling compilation of Christmann-Franck et al. (2016)
# Columns and labels:
# BMX (human) = BMX (human) (UniProt P51813); assay: Caliper, Mobility shift assay off-chip
# CDC42BPA (human) = CDC42BPA (human) (UniProt Q5VT25); assay: Caliper, Mobility shift assay off-chip
# CSNK1G2 (human) = CSNK1G2 (human) (UniProt P78368); assay: Caliper, Mobility shift assay off-chip
# EPHB3 (human) = EPHB3 (human) (UniProt P54753); assay: Caliper, Mobility shift assay off-chip
# HIPK2 (human) = HIPK2 (human) (UniProt Q9H2X6); assay: Caliper, Mobility shift assay off-chip
# HIPK2 (human), sequence (Q9H2X6 whole entry, looked up): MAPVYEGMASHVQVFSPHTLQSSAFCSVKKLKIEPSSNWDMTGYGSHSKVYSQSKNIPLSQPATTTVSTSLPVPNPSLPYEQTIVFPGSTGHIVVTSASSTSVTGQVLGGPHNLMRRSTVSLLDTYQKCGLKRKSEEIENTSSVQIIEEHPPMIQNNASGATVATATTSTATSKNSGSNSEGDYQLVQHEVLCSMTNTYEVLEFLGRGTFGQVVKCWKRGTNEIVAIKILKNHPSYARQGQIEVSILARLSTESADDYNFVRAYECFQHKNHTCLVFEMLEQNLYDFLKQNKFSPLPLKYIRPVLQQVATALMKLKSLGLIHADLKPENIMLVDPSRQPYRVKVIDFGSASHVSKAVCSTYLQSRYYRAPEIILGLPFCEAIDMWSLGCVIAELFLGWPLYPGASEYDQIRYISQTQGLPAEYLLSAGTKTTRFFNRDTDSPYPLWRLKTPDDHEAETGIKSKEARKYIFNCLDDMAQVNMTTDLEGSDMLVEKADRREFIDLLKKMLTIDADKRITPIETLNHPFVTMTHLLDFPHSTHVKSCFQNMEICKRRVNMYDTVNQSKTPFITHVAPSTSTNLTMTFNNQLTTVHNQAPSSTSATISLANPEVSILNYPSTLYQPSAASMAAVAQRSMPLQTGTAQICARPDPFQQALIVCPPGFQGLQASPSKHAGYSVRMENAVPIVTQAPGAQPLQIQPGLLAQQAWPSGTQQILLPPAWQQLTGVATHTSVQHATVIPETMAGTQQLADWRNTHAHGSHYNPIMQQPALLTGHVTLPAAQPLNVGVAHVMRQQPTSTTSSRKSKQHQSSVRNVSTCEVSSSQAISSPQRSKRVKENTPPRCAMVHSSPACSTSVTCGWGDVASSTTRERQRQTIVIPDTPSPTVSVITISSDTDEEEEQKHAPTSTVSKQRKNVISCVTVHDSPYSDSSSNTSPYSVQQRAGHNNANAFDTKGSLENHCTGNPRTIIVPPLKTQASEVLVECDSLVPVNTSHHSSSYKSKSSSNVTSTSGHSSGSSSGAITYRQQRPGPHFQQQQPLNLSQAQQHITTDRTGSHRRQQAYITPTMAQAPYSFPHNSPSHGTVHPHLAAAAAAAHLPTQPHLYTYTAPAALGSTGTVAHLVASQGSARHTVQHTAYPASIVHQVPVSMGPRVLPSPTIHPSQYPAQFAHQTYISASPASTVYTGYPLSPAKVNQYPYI
# KIT (human) = KIT (human) (UniProt P10721); assay: Caliper, Mobility shift assay off-chip; conditions: compound 0.2 µM
# MARK1 (human) = MARK1 (human) (UniProt Q9P0L2); assay: Caliper, Mobility shift assay off-chip
# YES1 (human) = YES1 (human) (UniProt P07947); assay: Caliper, Mobility shift assay off-chip
# YES1 (human), sequence (P07947 whole entry, looked up): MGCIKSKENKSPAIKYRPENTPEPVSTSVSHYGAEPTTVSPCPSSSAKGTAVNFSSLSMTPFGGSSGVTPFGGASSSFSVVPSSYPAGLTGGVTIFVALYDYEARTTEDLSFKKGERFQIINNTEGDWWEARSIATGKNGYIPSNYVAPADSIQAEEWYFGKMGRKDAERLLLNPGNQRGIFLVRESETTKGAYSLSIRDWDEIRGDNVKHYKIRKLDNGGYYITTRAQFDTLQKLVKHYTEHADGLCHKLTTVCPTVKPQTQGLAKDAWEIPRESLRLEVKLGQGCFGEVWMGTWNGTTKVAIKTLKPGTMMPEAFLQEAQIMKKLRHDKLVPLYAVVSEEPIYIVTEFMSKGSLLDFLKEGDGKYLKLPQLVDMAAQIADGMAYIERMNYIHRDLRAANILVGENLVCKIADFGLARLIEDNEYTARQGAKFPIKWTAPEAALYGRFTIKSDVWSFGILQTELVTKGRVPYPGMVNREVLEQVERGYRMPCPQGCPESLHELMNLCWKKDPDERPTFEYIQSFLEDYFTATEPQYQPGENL
# BMPR1A (human) = BMPR1A (human) (UniProt P36894); assay: ELISA
# BMPR1A (human), sequence (P36894 whole entry, looked up): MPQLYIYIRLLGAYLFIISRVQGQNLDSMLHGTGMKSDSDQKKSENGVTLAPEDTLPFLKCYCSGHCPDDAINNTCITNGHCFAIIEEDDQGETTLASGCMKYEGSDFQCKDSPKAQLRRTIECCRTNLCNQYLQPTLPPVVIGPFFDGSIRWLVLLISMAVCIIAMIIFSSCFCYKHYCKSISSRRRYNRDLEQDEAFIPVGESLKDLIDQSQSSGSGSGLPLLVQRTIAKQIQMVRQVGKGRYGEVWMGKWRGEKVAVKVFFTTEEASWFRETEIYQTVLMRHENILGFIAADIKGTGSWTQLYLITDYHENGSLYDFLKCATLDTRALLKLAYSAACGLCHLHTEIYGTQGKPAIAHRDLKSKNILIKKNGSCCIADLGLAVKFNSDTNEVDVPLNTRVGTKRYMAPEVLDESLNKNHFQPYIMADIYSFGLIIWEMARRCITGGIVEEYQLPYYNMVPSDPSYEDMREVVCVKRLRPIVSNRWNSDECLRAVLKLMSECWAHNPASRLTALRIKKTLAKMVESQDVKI
# MAP2K1 (human) = MAP2K1 (human) (UniProt Q02750); assay: ELISA
# MAP2K2 (human) = MAP2K2 (human) (UniProt P36507); assay: ELISA
# MAP2K3 (human) = MAP2K3 (human) (UniProt P46734); assay: ELISA
# MAP2K4 (human) = MAP2K4 (human) (UniProt P45985); assay: ELISA
# MAP2K4 (human), sequence (P45985 whole entry, looked up): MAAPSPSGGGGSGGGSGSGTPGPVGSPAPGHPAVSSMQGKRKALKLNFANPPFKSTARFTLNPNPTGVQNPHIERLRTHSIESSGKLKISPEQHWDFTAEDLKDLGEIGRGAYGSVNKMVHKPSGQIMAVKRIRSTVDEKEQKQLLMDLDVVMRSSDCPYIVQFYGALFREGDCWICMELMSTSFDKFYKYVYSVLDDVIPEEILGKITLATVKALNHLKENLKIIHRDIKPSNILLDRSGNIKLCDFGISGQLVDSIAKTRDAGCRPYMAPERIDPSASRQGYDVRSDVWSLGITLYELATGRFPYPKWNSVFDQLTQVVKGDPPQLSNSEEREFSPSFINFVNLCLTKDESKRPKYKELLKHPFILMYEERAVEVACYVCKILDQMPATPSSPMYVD
# MAP2K5 (human) = MAP2K5 (human) (UniProt Q13163); assay: ELISA
# MAP2K6 (human) = MAP2K6 (human) (UniProt P52564); assay: ELISA
# MAP2K7 (human) = MAP2K7 (human) (UniProt O14733); assay: ELISA
# MAP3K1 (human) = MAP3K1 (human) (UniProt Q13233); assay: ELISA
# MAP3K10 (human) = MAP3K10 (human) (UniProt Q02779); assay: ELISA
# MAP3K12 (human) = MAP3K12 (human) (UniProt Q12852); assay: ELISA
# MAP3K2 (human) = MAP3K2 (human) (UniProt Q9Y2U5); assay: ELISA
# MAP3K3 (human) = MAP3K3 (human) (UniProt Q99759); assay: ELISA
# MAP3K4 (human) = MAP3K4 (human) (UniProt Q9Y6R4); assay: ELISA
# MAP3K5 (human) = MAP3K5 (human) (UniProt Q99683); assay: ELISA
# MAP3K8 (human) = MAP3K8 (human) (UniProt P41279); assay: ELISA
# MAP3K9 (human) = MAP3K9 (human) (UniProt P80192); assay: ELISA
# MOS (human) = MOS (human) (UniProt P00540); assay: ELISA
# PLK4 (human) = PLK4 (human) (UniProt O00444); assay: ELISA
# RAF1 (human) = RAF1 (human) (UniProt P04049); assay: ELISA
# RAF1 (human), sequence (P04049 whole entry, looked up): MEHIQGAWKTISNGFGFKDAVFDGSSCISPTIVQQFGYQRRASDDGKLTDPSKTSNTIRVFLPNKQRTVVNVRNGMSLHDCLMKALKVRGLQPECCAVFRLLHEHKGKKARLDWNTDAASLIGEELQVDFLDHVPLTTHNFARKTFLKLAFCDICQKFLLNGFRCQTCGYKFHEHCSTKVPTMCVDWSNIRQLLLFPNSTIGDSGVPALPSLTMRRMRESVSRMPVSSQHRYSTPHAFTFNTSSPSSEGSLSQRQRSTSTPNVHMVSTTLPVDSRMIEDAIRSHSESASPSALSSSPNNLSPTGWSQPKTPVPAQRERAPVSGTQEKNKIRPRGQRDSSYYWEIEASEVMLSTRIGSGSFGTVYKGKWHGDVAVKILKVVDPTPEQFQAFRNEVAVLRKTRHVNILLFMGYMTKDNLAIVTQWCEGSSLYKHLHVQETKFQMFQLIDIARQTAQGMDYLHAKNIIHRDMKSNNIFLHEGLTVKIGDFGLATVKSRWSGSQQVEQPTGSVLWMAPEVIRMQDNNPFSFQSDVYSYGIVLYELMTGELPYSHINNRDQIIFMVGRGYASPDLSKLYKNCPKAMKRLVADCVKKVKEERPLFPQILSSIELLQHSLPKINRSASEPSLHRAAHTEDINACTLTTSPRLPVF
# STK11 (human) = STK11 (human) (UniProt Q15831); assay: ELISA; conditions: compound 0.02 µM
# TTK (human) = TTK (human) (UniProt P33981); assay: ELISA
# EPHB3 (human), sequence (P54753 whole entry, looked up): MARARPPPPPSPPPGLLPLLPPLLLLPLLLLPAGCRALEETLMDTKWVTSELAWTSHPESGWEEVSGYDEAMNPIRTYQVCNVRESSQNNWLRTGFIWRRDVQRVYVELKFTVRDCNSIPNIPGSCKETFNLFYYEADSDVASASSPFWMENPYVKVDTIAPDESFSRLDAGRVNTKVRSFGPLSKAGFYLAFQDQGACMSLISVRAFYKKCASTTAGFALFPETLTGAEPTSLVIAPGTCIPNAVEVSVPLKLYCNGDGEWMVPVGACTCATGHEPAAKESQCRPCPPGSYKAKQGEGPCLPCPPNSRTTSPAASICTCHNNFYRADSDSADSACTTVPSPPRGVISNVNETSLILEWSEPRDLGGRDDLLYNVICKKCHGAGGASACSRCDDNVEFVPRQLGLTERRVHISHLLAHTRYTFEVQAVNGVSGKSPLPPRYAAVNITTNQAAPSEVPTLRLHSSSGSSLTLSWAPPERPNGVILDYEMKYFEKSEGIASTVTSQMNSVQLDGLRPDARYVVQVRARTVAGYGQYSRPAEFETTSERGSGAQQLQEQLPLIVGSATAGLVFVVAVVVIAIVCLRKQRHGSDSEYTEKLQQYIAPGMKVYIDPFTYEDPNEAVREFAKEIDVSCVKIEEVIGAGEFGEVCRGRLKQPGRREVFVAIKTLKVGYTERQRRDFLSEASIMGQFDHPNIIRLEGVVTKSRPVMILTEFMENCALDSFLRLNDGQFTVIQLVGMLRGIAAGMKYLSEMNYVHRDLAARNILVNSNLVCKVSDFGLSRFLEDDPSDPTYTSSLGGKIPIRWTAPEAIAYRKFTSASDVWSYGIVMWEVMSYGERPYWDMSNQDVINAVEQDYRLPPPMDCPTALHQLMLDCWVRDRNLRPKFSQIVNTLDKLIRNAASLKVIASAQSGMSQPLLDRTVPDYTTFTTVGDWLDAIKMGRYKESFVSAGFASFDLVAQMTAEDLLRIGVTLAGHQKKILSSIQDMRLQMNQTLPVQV
# BMX (human), sequence (P51813 whole entry, looked up): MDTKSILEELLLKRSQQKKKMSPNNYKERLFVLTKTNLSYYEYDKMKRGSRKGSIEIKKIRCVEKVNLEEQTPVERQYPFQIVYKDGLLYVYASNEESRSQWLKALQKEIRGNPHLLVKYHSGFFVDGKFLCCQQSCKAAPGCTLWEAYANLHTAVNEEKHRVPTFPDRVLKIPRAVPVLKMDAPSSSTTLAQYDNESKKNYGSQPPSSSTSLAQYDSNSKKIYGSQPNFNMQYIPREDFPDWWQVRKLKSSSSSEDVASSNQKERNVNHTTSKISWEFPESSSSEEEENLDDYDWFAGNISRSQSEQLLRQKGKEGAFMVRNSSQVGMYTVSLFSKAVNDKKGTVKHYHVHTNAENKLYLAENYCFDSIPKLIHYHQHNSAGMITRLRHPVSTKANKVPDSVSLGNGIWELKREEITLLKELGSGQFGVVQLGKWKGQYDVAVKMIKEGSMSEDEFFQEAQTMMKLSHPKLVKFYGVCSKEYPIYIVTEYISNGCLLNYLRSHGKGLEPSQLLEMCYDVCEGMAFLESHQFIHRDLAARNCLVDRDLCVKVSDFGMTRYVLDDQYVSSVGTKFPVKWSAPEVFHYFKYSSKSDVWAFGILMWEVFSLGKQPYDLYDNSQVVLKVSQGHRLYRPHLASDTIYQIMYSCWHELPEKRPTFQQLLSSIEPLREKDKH
compound,measurement,setting,value
Cc1ccc(Nc2nccc(N(C)c3ccc4c(C)n(C)nc4c3)n2)cc1S(N)(=O)=O,inhibition,BMX (human); compound 0.02 µM,6.9%
same,inhibition,BMX (human); compound 0.2 µM,0.9%
same,inhibition,CDC42BPA (human); compound 0.02 µM,13.3%
same,inhibition,CDC42BPA (human); compound 0.2 µM,11%
same,inhibition,CSNK1G2 (human); compound 0.02 µM,1.7%
same,inhibition,CSNK1G2 (human); compound 0.2 µM,0.3%
same,inhibition,EPHB3 (human); compound 0.02 µM,-6.1%
same,inhibition,EPHB3 (human); compound 0.2 µM,-4%
same,inhibition,HIPK2 (human); compound 0.02 µM,1.4%
same,inhibition,HIPK2 (human); compound 0.2 µM,3.3%
same,inhibition,KIT (human),83%
same,inhibition,MARK1 (human); compound 0.02 µM,4.6%
same,inhibition,MARK1 (human); compound 0.2 µM,3%
same,inhibition,YES1 (human); compound 0.02 µM,13.3%
same,inhibition,YES1 (human); compound 0.2 µM,44.3%
same,inhibition,BMPR1A (human); compound 0.02 µM,0.4%
same,inhibition,BMPR1A (human); compound 0.2 µM,6.5%
same,inhibition,MAP2K1 (human); compound 0.02 µM,-3.2%
same,inhibition,MAP2K1 (human); compound 0.2 µM,-5.7%
same,inhibition,MAP2K2 (human); compound 0.02 µM,-7.4%
same,inhibition,MAP2K2 (human); compound 0.2 µM,-4%
same,inhibition,MAP2K3 (human); compound 0.02 µM,-3.4%
same,inhibition,MAP2K3 (human); compound 0.2 µM,5.5%
same,inhibition,MAP2K4 (human); compound 0.02 µM,8.7%
same,inhibition,MAP2K4 (human); compound 0.2 µM,9.5%
same,inhibition,MAP2K5 (human); compound 0.02 µM,-16.9%
same,inhibition,MAP2K5 (human); compound 0.2 µM,0%
same,inhibition,MAP2K6 (human); compound 0.02 µM,7.1%
same,inhibition,MAP2K6 (human); compound 0.2 µM,24.5%
same,inhibition,MAP2K7 (human); compound 0.02 µM,3.2%
same,inhibition,MAP2K7 (human); compound 0.2 µM,0.2%
same,inhibition,MAP3K1 (human); compound 0.02 µM,-1%
same,inhibition,MAP3K1 (human); compound 0.2 µM,3.7%
same,inhibition,MAP3K10 (human); compound 0.02 µM,8.1%
same,inhibition,MAP3K10 (human); compound 0.2 µM,17.3%
same,inhibition,MAP3K12 (human); compound 0.02 µM,8.5%
same,inhibition,MAP3K12 (human); compound 0.2 µM,25%
same,inhibition,MAP3K2 (human); compound 0.02 µM,-4%
same,inhibition,MAP3K2 (human); compound 0.2 µM,12%
same,inhibition,MAP3K3 (human); compound 0.02 µM,4.7%
same,inhibition,MAP3K3 (human); compound 0.2 µM,39.5%
same,inhibition,MAP3K4 (human); compound 0.02 µM,-1.5%
same,inhibition,MAP3K4 (human); compound 0.2 µM,3%
same,inhibition,MAP3K5 (human); compound 0.02 µM,1.9%
same,inhibition,MAP3K5 (human); compound 0.2 µM,8.3%
same,inhibition,MAP3K8 (human); compound 0.02 µM,-2.6%
same,inhibition,MAP3K8 (human); compound 0.2 µM,-1.1%
same,inhibition,MAP3K9 (human); compound 0.02 µM,28.1%
same,inhibition,MAP3K9 (human); compound 0.2 µM,74.8%
same,inhibition,MOS (human); compound 0.02 µM,-6.8%
same,inhibition,MOS (human); compound 0.2 µM,5%
same,inhibition,PLK4 (human); compound 0.02 µM,8.8%
same,inhibition,PLK4 (human); compound 0.2 µM,22.3%
same,inhibition,RAF1 (human); compound 0.02 µM,22.1%
same,inhibition,RAF1 (human); compound 0.2 µM,77.8%
same,inhibition,STK11 (human),0.6%
same,inhibition,TTK (human); compound 0.02 µM,-8.3%
same,inhibition,TTK (human); compound 0.2 µM,2.4%
